Test: refractive index (other wavelength) (dimensionless); xn = mol fraction of the nth substance listed
Settings: 101 kPa, Liquid, Standard Abbe refractometry

CC(C)OC(C)C [diisopropyl ether] + CO
refractive index
Settings	Wavelength=40.47 nm	Wavelength=435.8 nm	Wavelength=486.1 nm	Wavelength=546.1 nm	Wavelength=587.6 nm	Wavelength=589.3 nm	Wavelength=632.8 nm	Wavelength=644 nm	Wavelength=706.5 nm
293.15 K, x2 = 0	1.37888	1.37585	1.37241	1.36955	1.36806	1.36801	1.36674	1.36644	1.36501
293.15 K, x2 = 0.0423	1.37892	1.37589	1.37246	1.3696	1.36811	1.36806	1.36678	1.36648	1.36504
293.15 K, x2 = 0.0424	1.37884	1.37583	1.37238	1.36953	1.36803	1.36798	1.3667	1.3664	1.36476
293.15 K, x2 = 0.082	1.37887	1.37585	1.37242	1.36956	1.36807	1.36802	1.36674	1.36644	1.365
293.15 K, x2 = 0.0822	1.37872	1.37569	1.37228	1.36942	1.36795	1.36789	1.36663	1.36633	1.36487
293.15 K, x2 = 0.1171	1.37858	1.37556	1.37214	1.3693	1.36783	1.36777	1.36649	1.36619	1.36476
293.15 K, x2 = 0.1271	1.37862	1.3756	1.37217	1.36933	1.36784	1.36779	1.36651	1.36622	1.36479
293.15 K, x2 = 0.1827	1.37814	1.37514	1.37173	1.36889	1.36741	1.36736	1.36608	1.36579	1.36436
293.15 K, x2 = 0.2162	1.37791	1.37492	1.37149	1.36867	1.36719	1.36713	1.36585	1.36556	1.36414
293.15 K, x2 = 0.251	1.37812	1.37513	1.37172	1.36888	1.36741	1.36735	1.36609	1.36579	1.36436
293.15 K, x2 = 0.3298	1.37709	1.37411	1.37071	1.36792	1.36645	1.3664	1.36512	1.36482	1.3634
293.15 K, x2 = 0.3577	1.37556	1.37264	1.36925	1.36647	1.365	1.36494	1.36367	1.36338	1.36197
293.15 K, x2 = 0.4497	1.37463	1.3717	1.36834	1.36558	1.36412	1.36407	1.3628	1.36251	1.3611
293.15 K, x2 = 0.4525	1.37517	1.37223	1.36886	1.36609	1.36462	1.36457	1.3633	1.36301	1.3616
293.15 K, x2 = 0.522	1.37278	1.36987	1.36658	1.36382	1.36239	1.36233	1.36109	–	1.35939
293.15 K, x2 = 0.5543	1.37252	1.36963	1.36633	1.36357	1.36214	1.36209	1.36085	1.36055	1.35915
293.15 K, x2 = 0.609	1.36927	1.3664	1.36316	1.3644	1.35903	1.35897	1.35774	1.35745	1.35606
293.15 K, x2 = 0.6529	1.36767	1.36484	1.36161	1.35891	1.35751	1.35746	1.35624	1.35595	1.35456
293.15 K, x2 = 0.7504	1.36362	1.36086	1.35769	1.35503	1.35365	1.3536	1.3524	1.35211	–
293.15 K, x2 = 0.804	1.35916	1.35647	1.35338	1.35075	1.34938	1.34933	1.34816	1.34788	1.34652
293.15 K, x2 = 0.807	1.35902	1.35632	1.35323	1.3506	1.34924	1.34919	1.34801	1.34773	1.34638
293.15 K, x2 = 0.8727	1.35351	1.35088	1.34784	1.34528	1.34394	1.34389	1.34273	1.34246	1.34113
293.15 K, x2 = 0.9233	1.34636	1.34384	1.34087	1.33839	1.33708	1.33703	1.3359	1.33564	1.33435
293.15 K, x2 = 0.9253	1.34824	1.34571	1.34275	1.34023	1.33891	1.33886	1.33772	1.33746	1.33617
293.15 K, x2 = 0.9527	1.34496	1.34296	1.33953	1.33705	1.33574	1.33569	1.33457	1.33431	1.33303
293.15 K, x2 = 0.9773	1.34138	1.33894	1.33601	1.33356	1.33228	1.33223	1.33112	1.33086	1.32963
293.15 K, x2 = 0.989	1.34018	1.33775	1.33487	1.33242	1.33114	1.3311	1.33	1.32975	1.32951
293.15 K, x2 = 0.9964	1.33872	1.33631	1.33342	1.33098	1.3297	1.32965	1.32856	1.32831	1.32708
298.15 K, x2 = 0	1.37607	1.37308	1.36965	1.36683	1.36535	–	–	–	–
298.15 K, x2 = 0.0423	1.37664	1.37305	1.36963	1.36681	1.36534	–	–	–	–
298.15 K, x2 = 0.0424	1.37602	1.37303	1.36961	1.36679	1.36531	–	–	–	–
298.15 K, x2 = 0.082	1.37599	1.373	1.36958	1.36677	1.36528	–	–	–	–
298.15 K, x2 = 0.0822	1.37598	1.373	1.36957	1.36678	1.3653	–	–	–	–
298.15 K, x2 = 0.1171	1.3758	1.37283	1.36942	1.36661	1.36514	–	–	–	–
298.15 K, x2 = 0.1271	1.37584	1.37286	1.36944	1.36664	1.36515	–	–	–	–
298.15 K, x2 = 0.1827	1.37543	1.37246	1.36905	1.36626	1.36478	–	–	–	–
298.15 K, x2 = 0.2162	1.37664	1.37305	1.36963	1.36681	1.36534	–	–	–	–
298.15 K, x2 = 0.251	1.37352	1.37234	1.36895	1.36616	1.3647	–	–	–	–
298.15 K, x2 = 0.3298	1.37448	1.37153	1.36815	1.36537	1.36391	–	–	–	–
298.15 K, x2 = 0.3577	1.37299	1.37006	1.36672	1.36396	1.36251	–	–	–	–
298.15 K, x2 = 0.4497	1.37205	1.36914	1.36584	1.36306	1.36163	–	–	–	–
298.15 K, x2 = 0.4525	1.37262	1.36969	1.36637	1.3636	–	–	–	–	–
298.15 K, x2 = 0.522	1.37025	1.36737	1.36409	1.36134	–	–	–	–	–
298.15 K, x2 = 0.5543	1.3698	1.36692	1.36368	1.36093	–	–	–	–	–
298.15 K, x2 = 0.609	1.36677	1.36396	–	1.35803	–	–	–	–	–
298.15 K, x2 = 0.6529	1.36523	1.36244	1.35923	1.35655	–	–	–	–	–
298.15 K, x2 = 0.7504	1.36122	1.35846	1.35533	1.3527	–	–	–	–	–
298.15 K, x2 = 0.804	1.35681	1.35412	1.35108	1.34846	–	–	–	–	–
298.15 K, x2 = 0.807	1.3567	1.35401	1.35096	1.34834	–	–	–	–	–
298.15 K, x2 = 0.8727	1.35132	1.34872	1.34572	1.34316	–	–	–	–	–
298.15 K, x2 = 0.9233	1.34416	1.34165	1.33873	1.33624	–	–	–	–	–
298.15 K, x2 = 0.9253	1.34607	1.34355	1.3406	1.33811	–	–	–	–	–
298.15 K, x2 = 0.9527	1.34281	1.34033	1.3374	1.33494	–	–	–	–	–
298.15 K, x2 = 0.9773	1.33922	1.3368	1.3339	1.33146	–	–	–	–	–
298.15 K, x2 = 0.989	1.33798	1.3356	1.3327	1.33028	–	–	–	–	–
298.15 K, x2 = 0.9964	1.33656	1.3342	1.33128	1.32888	–	–	–	–	–
